{
  "source": "patent US20110263423A1",
  "about": "“Plant Health Composition” (BASF SE, priority 2008, published 2011)",
  "type_in_all_cases": "in vivo",
  "key": {"[1]": {"test_system": "spring wheat (cv. Passat)", "assay": "Spring wheat pot trial, optimal water supply (Example 1)", "procedure": "Mitcherlich pots of known weight were filled with 5.5 kg of sandy dry soil (pH 6.8) and fertilized (P, K and Mg) to optimal growing conditions. The culture was spring wheat (cv. Passat); 12 plants per pot. The experiment was conducted with 6 replications in a vegetation hall. Experiments were carried out under semi controlled conditions at very low disease-pressure with insignificant infection rates, protected from any undesired rain or water impact. The water consumption of each pot was calculated on the basis of the recorded measurements of the weight of the pots prior to each irrigation event up to the defined set point.\n(§1) Nitrogen fertilizer (totally 1.75 g N/pot) was added in equal amounts at 3 stages to allow optimal growth conditions throughout the life cycle. All plants/pots were grown at optimal water supply by watering 2-3 times a day to 60% of the water holding capacity of the soil.\nCompound Ia (62.5 g/L, 2 L in 400 L water/ha) was applied at growth stage 39/49 (BBCH scale), which is an EC formulation of compound Ia. Control plants were not treated.\nPlant Height, as an indicator of plant vigor, was measured after heading. At maturity of the plants the grain, as an indicator of yield, was harvested and uniformly dried to 5% moisture content. Straw yield, as an another indicator of plant yield, was also determined and the number of halms with ear per pot was counted at maturity. Number of grains per pot was counted after harvest. Thousand Grain Weight (TGW), as yet another indicator of plant yield, was calculated based on grain yield per pot and number of grains per pot."}, "[2]": {"test_system": "spring wheat (cv. Passat)", "assay": "Spring wheat pot trial, severe drought stress (Example 2)", "procedure": "Spring wheat (cv. Passat) was cultivated in Mitcherlich pots as described above in example 1. The experiment was conducted with 6 replications in a vegetation hall. Experiments were carried out under semi controlled conditions at very low disease-pressure with insignificant infection rates, protected from any undesired rain or water impact. The water consumption of each pot was calculated on the basis of the recorded measurements of the weight of the pots prior to each irrigation event up to the defined set point.\nas §1, with “soil until growth stage 55 (BBCH). Then, pots were only watered to 60% of the maximum water holding capacity of the soil after clear water stress symptoms on the plants were visible to apply severe drought stress.” for “soil.”\nCompound Ia (62.5 g/l, 2 L in 400 L water/ha) was applied at growth stage 39/49 (BBCH scale), which is an EC formulation of compound Ia. Control plants were not treated.\nAfter ripening of the plants, the grain was harvested and uniformly dried to 5% moisture content. Grain yield per pot, grain yield per ear, number of grains per ear and number of grains per pot were determined as indicators of plant vigor and plant yield. The relation of grain yield to straw added to the grain yield was used to calculate the harvest index."}, "[3]": {"test_system": "Maize (Dekalb RX940)", "assay": "Maize field trial, Dinuba 2008 (Example 5)", "procedure": "Maize was grown in 2008 in a field trial at the BASF experimental station in Dinuba, 10181 Avenue 416, Calif., U.S.A. The variety Dekalb RX940 was planted at a seeding rate of 10 plants/m^2. Four rows per plot were planted with a row spacing of 0.75 m. The trial was setup as a randomized bloc design with 5 replications, each. Plot size was 43 m^2. Compound Ia was used as an EC formulation (62.5 g a.i./L) with a dose rate of 0.8 L per hectar (50 g a.i./ha). The formulation was applied in a total spray volume of 400 L/ha. Compound Ia was sprayed at a growth stage 51/55 (BBCH) with a tractor mounted spray boom with VS11003 spray nozzles at 3 bar spray pressure.\nNo disease symptoms were visible at the application time and no symptoms were detected at later stages.\nGreen leaf area, as an indicator of plant vigor, was assessed beginning of ripening by estimating the green leaf area in 10 randomly chosen plants per plot.\nAt maturity the grain was harvested and the grain yield per plot, as an indicator of plant yield, was determined (kg/plot). Finally, the grain yield per hectare, as an aditional indicator of plant yield, was calculated (dt/ha). Furthermore, the Thousand Grain Weight (TGW) was determined in the second trial (Crow C300 42)."}, "[4]": {"test_system": "Soybeans (M-SOY 6001 RR)", "assay": "Soybean field trial Brazil, ternary mixture, Colby synergism (Example 7)", "conditions": "soybean M-SOY 6001 RR, Ia 40, epoxiconazol 40, pyraclostrobin 65 g a.i./ha", "procedure": "Soybeans were grown in 2008 at the CEDUP “Caetano Vieira da Costa” in Sao José do Cerrito, Santa […], Brazil. The variety M-SOY 6001 RR was planted in 2007, 11 Nov., at a seeding rate of 300.000 plants per ha. Row spacing was 50 cm. The trial was setup as a randomized bloc design with 4 replications. Plot size was 12.5 m^2. Fungicide treatments were applied at BBCH GS 70-79 (pods reached 15-20 mm of final […]). The fungicides were used as formulations. Compound Ia was applied as an EC formulation (62.5 g/L-EC) at 0.64 L/ha (40 g ai/ha). […] The adjuvant DASH HC was added to the spray tank with 0.3% (v/v). Finally, compound Ia was applied in a mixture together with epoxiconazol and pyraclostrobin forming a ternary mixture according to the present invention, using a coformulation of all three compounds (50 g/L of compound Ia+50 g/L of epoxiconazol+81 g/L of pyraclostrobin-EC). This formulation was sprayed at a rate of 0.8 […] compound […] epoxiconazol+65 g a.i./ha pyraclostrobin). The formulations were diluted in water. Total spray volume for foliar application was 150 L/ha. The trial was conducted under low disease pressure. […] Plots were harvested at maturity of the soybean crop and the yield (thousand grain weight) was determined (table 11). The efficacy in yield increase was calculated as % increase of the Thousand Grain Weight (TGW) by the treatments compared to the untreated control. […]"}, "[5]": {"conditions": "severe drought stress from BBCH 55, 2 L/ha EC at BBCH 39/49"}},
  "data": [
    {"compound": "Cn1cc(C(=O)Nc2ccccc2-c2cc(F)c(F)c(F)c2)c(C(F)F)n1", "note": "[Compound Ia, N-(3′,4′,5′-trifluorobiphenyl-2-yl)-3-difluoromethyl-1-methyl-1H-pyrazole-4-carboxamide]", "values": [
      {"measurement": "Grain yield/pot, change vs untreated control", "setting": "[1]; 2 L/ha EC at BBCH 39/49", "value": "(+6%)"},
      {"measurement": "Number of halms with ear/pot, change vs untreated control", "setting": "[1]; 2 L/ha EC at BBCH 39/49", "value": "(+16%)"},
      {"measurement": "Plant height, change vs untreated control", "setting": "[1]; 2 L/ha EC at BBCH 39/49", "value": "(+2%)"},
      {"measurement": "Straw yield", "setting": "[1]; 2 L/ha EC at BBCH 39/49", "value": 70.0, "unit": "g/pot"},
      {"measurement": "Straw yield, change vs untreated control", "setting": "[1]; 2 L/ha EC at BBCH 39/49", "value": "(+6%)"},
      {"measurement": "TGW (Thousand Grain Weight)", "setting": "[1]; 2 L/ha EC at BBCH 39/49", "value": 32.0, "unit": "g"},
      {"measurement": "TGW, change vs untreated control", "setting": "[1]; 2 L/ha EC at BBCH 39/49", "value": "(+2%)"},
      {"measurement": "Number of halms with ear/pot", "setting": "[1]; 2 L/ha EC at BBCH 39/49, at maturity", "value": 37.5},
      {"measurement": "Grain yield/pot", "setting": "[1]; 2 L/ha EC at BBCH 39/49, grain dried to 5% moisture", "value": 74.2, "unit": "g/pot"},
      {"measurement": "Plant height", "setting": "[1]; EC 62.5 g/L, 2 L in 400 L water/ha at BBCH 39/49, measured after heading", "value": 76.2, "unit": "cm"},
      {"measurement": "Harvest index, change vs untreated control", "setting": "[2]; severe drought stress", "value": "(+3%)"},
      {"measurement": "Number of grains per ear, change vs untreated control", "setting": "[2]; severe drought stress", "value": "(+3%)"},
      {"measurement": "Single ear grain yield, change vs untreated control", "setting": "[2]; severe drought stress", "value": "(+3%)"},
      {"measurement": "Harvest index (grain yield g/grain + straw yield g)", "setting": "[2]; [5]", "value": 0.42},
      {"measurement": "Number of grains per ear", "setting": "[2]; [5]", "value": 49.9},
      {"measurement": "Single ear grain yield", "setting": "[2]; [5]", "value": 1.31, "unit": "g/ear"},
      {"measurement": "Grain yield, increase as % of untreated", "setting": "[3]; 50 g a.i./ha", "value": "(+4.5%)"},
      {"measurement": "TGW, increase as % of untreated", "setting": "[3]; 50 g a.i./ha", "value": "(+3.3%)"},
      {"measurement": "Grain yield", "setting": "[3]; 50 g a.i./ha at BBCH 51/55", "value": 154.7, "unit": "dt/ha"},
      {"measurement": "TGW", "setting": "[3]; 50 g a.i./ha at BBCH 51/55", "value": 317.0, "unit": "g"},
      {"measurement": "% Green leaf area", "setting": "[3]; 50 g a.i./ha at BBCH 51/55, beginning of ripening", "value": 49.0, "unit": "%"},
      {"measurement": "Grain yield, increase as % of untreated", "setting": "[3]; 50 g a.i./ha, listed as compound Ia", "value": 4.5, "unit": "%"},
      {"measurement": "Observed efficacy (% increase of TGW vs untreated control)", "setting": "[4]", "value": 0, "unit": "%"},
      {"measurement": "TGW", "setting": "[4]; BBCH 70-79", "value": 153, "unit": "g"}
    ]}
  ]
}
